Data taken from US8252766B2 (CBT Development Limited, priority 2002, dated 2012).

Tests used:
[1] = rats; cited from earlier work
[2] = test system: carrageenan-induced oedema; conditions: rats; inhibition of carrageenan-induced oedema in a rat paw; cited from earlier work
[3] = test system: carrageenan (CGN) induced thermal hyperalgesia; assay: carrageenan induced thermal hyperalgesia (CITH); type: in vivo
Method: Carrageenan (2%, 10 microliters) was administered into the right hind paw. A heat source was placed close to the treated and untreated hind paws, and the difference in the paw withdrawal latencies is shown. Spongosine was administered at the same time as carrageenan.

[4] = blood pressure and heart rate by implantable radiotelemetry; type: in vivo, rat; conditions: 0.624 mg/kg p.o., normal rats
Source text: An implantable radiotelemetry device was placed in the abdominal cavity of 6 rats per group. The pressure catheter of the device was inserted in the abdominal aorta and two electrodes tunnelised under the skin in a lead II position (left side of abdominal cavity/right shoulder). Individual rats were placed in their own cage on a radioreceptor (DSI) for data acquisition. A: blood pressure, B; heart rate.

[5] = test system: normal physiological nociception; assay: normal physiological nociception; type: in vivo; conditions: after administration of spongosine
[6] = test system: thermal hyperalgesia caused by chronic constriction injury; assay: thermal hyperalgesia caused by chronic constriction injury of the rat sciatic nerve; type: in vivo
Source text: After approximately two weeks the rats developed thermal hyperalgesia in the operated leg as judged by the difference in paw withdrawal latencies of the right and left paws.

[7] = test system: static allodynia; assay: static allodynia in a model of neuropathic pain; type: in vivo
Method: Spongosine and gabapentin were administered (p.o.) in different proportions as indicated in the drawing. The total dose administered is shown on the horizontal axis, and the paw withdrawal threshold (PWT) on the vertical axis. The predicted anti-hyperalgesic effect (derived from the dose response curves obtained with each agent alone) if the effects of the two compounds are additive is shown (●). The observed effects are indicated by (▪).

| Structure (SMILES) | hypotensive activity [1] | hypothermic activity [1] | muscle relaxant activity [1] | anti-inflammatory activity [2] | inhibition of carrageenan induced thermal hyperalgesia (difference in paw withdrawal latencies) ([3]; 0.624 mg/kg p.o., given at the same time as carrageenan (2%, 10 microliters, right hind paw)) | efficacy relative to indomethacin ([3]; spongosine 0.624 mg/kg p.o. versus indomethacin 3 mg/kg po) | effect on blood pressure [4] | effect on heart rate [4] | analgesic effect on normal physiological nociception [5] | inhibition of thermal hyperalgesia (difference in paw withdrawal latencies) ([6]; 0.624 mg/kg p.o., rat, about two weeks after sciatic nerve ligation) | efficacy relative to carbamazepine ([6]; spongosine 0.624 mg/kg p.o. versus carbamazepine 100 mg/kg s.c.) | inhibition of static allodynia (paw withdrawal threshold, PWT) ([7]; 1.2 mg/kg p.o., absence of naloxone) | inhibition of static allodynia (paw withdrawal threshold, PWT) ([7]; 1.2 mg/kg p.o., presence of naloxone 1 mg/kg s.c.) | inhibition of static allodynia (paw withdrawal threshold, PWT) ([7]; p.o., dose response, Example 5) |
| --- | --- | --- | --- | --- | --- | --- | --- | --- | --- | --- | --- | --- | --- | --- |
| COc1nc(N)c2ncn([C@@H]3O[C@H](CO)[C@@H](O)[C@H]3O)c2n1 [Spongosine, 2-methoxyadenosine] | hypotensive | hypothermic | muscle relaxant | anti-inflammatory activity | inhibits | comparable efficacy | no significant effect | no significant effect | No analgesic effect | inhibits | as, or more, effective | inhibits | inhibits | inhibit |
| NCC1(CC(=O)O)CCCCC1 [gabapentin, reference compound] |  |  |  |  |  |  |  |  |  |  |  |  |  | inhibit |
